≈ marks a conversion by molar mass, not a printed value.
How the values were obtained:
[1] = Acute toxicity in CDF-1 female mice; assay type: in vivo
Experimental: Acute toxicity of Compounds of Examples
CDF-1 female mice (5-week old: a group of consisting of 5 mice) were given once intraperitoneally 0.2 ml of a physiological saline solution of a compound of Example.

[2] = tested on: human nasopharynx cancer (KB cells); assay: Inhibition of multiplication of human nasopharynx cancer (KB cells), MTT assay; assay type: cell-based; conditions: 72 hours
Experimental: (§1) The effect (IC50) of the compounds obtained by Examples in inhibiting multiplication of human nasopharynx cancer (KB cells) and human colon adenocarcinoma (colon 205 cells) Each well of a 96-well microtiter plate was inoculated with 0.1 ml of human nasopharynx cancer (KB cells) (1×10^4 /ml) or human colon adenocarcinoma (colon 205 cells) (2×10^4 /ml), which was then subjected to cultivation by allowing to stand at 37° C. for 24 hours in 5% CO2. To the culture was added a 10% MEM solution (manufactured by Nissui Seiyaku or RPMI-1640), and cultivation was continued at 37° C. for 72 hours in 5% CO2. Then, the culture solution was removed with a micro-pipette. […] Incubation was conducted at 37° C for 4 hours, to which was then added 0.1 ml of a 10% SDS (Wako Pure Chemical Industries, Ltd.), and the incubation was continued at 37° C. for 24 hours.

[3] = tested on: human colon adenocarcinoma (colon 205 cells); assay: Inhibition of multiplication of human colon adenocarcinoma (colon 205 cells), MTT assay; assay type: cell-based; conditions: 72 hours
Experimental: as §1

Sarcoma 180 cells = assay: Antitumor effect against Sarcoma 180 cells in ICR mice; assay type: in vivo, murine (ICR mice); conditions: for Life-span prolongation ratio (T/C %): 0.33 mg/mouse i.p. 1 hour, 1 day and 2 days after inoculation, only related to mice which died; for Number of survivors/number of mice tested: 0.33 mg/mouse i.p. three times, on the 60th day
Experimental: Antitumor effect of compounds of Examples against Sarcoma 180 cells
ICR mice (a group consisting of 5 mice) were inoculated intraperitoneally with 1×10^5 Sarcoma 180 cells per mouse. Then, 0.33 mg/mouse of a compound dissolved in physiological saline was intraperitoneally administered three times, i.e. 1 hour, 1 day and 2 days after the inoculation. Shown in Table 4 are the life-span prolongation ratio against the control group without treatment and the number of surviving mice on the 60th day after the initiation of the test.

breast cancer cells MM46 = assay: Action against breast cancer cells MM46 in C3H mice; assay type: in vivo, murine (C3H mice); conditions: for Life-span prolongation ratio (T/C %): 0.20 mg/mouse once a day for 4 consecutive days, only related to mice which died; for No. of survivors/No. of mice tested: 0.20 mg/mouse once a day for 4 days, on the 60th day
Experimental: Action of the compounds obtained in Examples against breast cancer cells MM46
C3H mice (a group consisting of 5 mice) were inoculated intraperitoneally with 1×10^4 MM46 cells per mouse, and given 0.20 mg/mouse of compounds of Examples dissolved in physiological saline once a day for 4 consecutive days starting from the second day after the inoculation. Shown in Table 3 are the life-span prolongation ratio against the control group without treatment and the number of surviving mice on the 60th day after starting the test.

[4] = tested on: murine colon cancer (colon 26); assay: Action against murine colon cancer (colon 26) in Balb/C mice; assay type: in vivo; conditions: 0.3 mg/mouse i.p., eight times; tumor weight after 14 days, against untreated control
Experimental: Action of the compound in Example against murine colon cancer (colon 26)
Balb/C mice (a group consisting of five mice) were inoculated subcutaneously at dorsolateral area with 2×10^5 murine colon cancer (colon 26l) cells, and then given intraperitoneally 0.3 mg/mouse of the compound dissolved in physiological saline, eight times, i.e. 1 day, 2 days, 5 days, 6 days, 8 days, 9 days, 12 days and 13 days after the inoculation. After 14 days, the tumor tissue was extirpated and the tumor weight was weighed. Shown in Table 2 is tumor growth inhibition ratio against the untreated control.

[5] = 50 mg/kg once i.p., after 7 days

IC50 [3] [µg/mL] | SMILES | IC50 [2] [µg/mL] | also measured
– | CCCCCCCCCCCCCCCCCCOCC(CSCCOCC[n+]1ccn(CCCC(=O)[O-])c1)Oc1ncccn1 (centres unmarked) [Ex. 11, 4-[3-[2-[2-[3-octadecyloxy-2-(pyrimidin-2-yloxy)propylthio]ethoxy]ethyl]imidazolio-1-yl]butyrate] | – | No. of dead mice/No. of mice tested [1, 5]: 0/5
– | CCCCCCCCCCCCCCCCCCOCC(CS(=O)(=O)CCOCC[N+](C)(C)C)Oc1ncccn1.[Cl-] (centres unmarked) [Ex. 21, N-[2-[2-[3-octadecyloxy-2-(pyrimidin-2-yloxy)propylsulfonyl]ethoxy]ethyl]-N,N,N-trimethylammonium chloride] | 0.32 | Life-span prolongation ratio (T/C %) (breast cancer cells MM46): 144%; No. of survivors/No. of mice tested (breast cancer cells MM46): 2/5
– | CCCCCCCCCCCCCCCCCCOCC(CS(=O)(=O)CCOCC[n+]1ccsc1)Oc1ncccn1 (centres unmarked) [Ex. 19, 2-[2-[3-octadecyloxy-2-(pyrimidin-2-yl-oxy)propylsulfonyl]ethoxy]ethylthiazolium chloride] | – | Life-span prolongation ratio (T/C %) (breast cancer cells MM46): 154%; No. of survivors/No. of mice tested (breast cancer cells MM46): 2/5
0.63 | CCCCCCCCCCCCCCCCCCOCC(C[S+]([O-])CCOCCOCC[N+](C)(C)C)Oc1ncccn1.[Cl-] (centres unmarked) [Ex. 48, N-[2-[2-[3-octadecyloxy-2-(pyrimidin-2-yloxy)propylsulfinyl]ethoxy]ethoxy]ethyl-N,N,N-trimethylammonium chloride] | 0.16 | –
1.25 | CCCCCCCCCCCCCCCCCCOCC(CS(=O)(=O)CCCCCOCCCCC[n+]1ccccc1)Oc1ncccn1.[Cl-] (centres unmarked) [Ex. 42, N-[5-[5-[3-octadecyloxy-2-(pyrimidin-2-yloxy)propylsulfonyl]pentyloxy]pentyl]pyridinium chloride] | 0.32 | –
2.5 (≈ 3.62 µM) | CCCCCCCCCCCCCCCCCCOCC(CSCCOCC[n+]1ccn(CCCCCC(=O)[O-])c1)Oc1ccncn1 (centres unmarked) [Ex. 33, 6-[3-[2-[2-[3-octadecyloxy-2-(pyrimidin-4-yloxy)propylthio]ethoxy]ethyl]imidazolio-1-yl]hexanoate] | 0.63 (≈ 0.912 µM) | –
1.25 | CCCCCCCCCCCCCCCCCCOCC(CSCCOCCOCC[N+](C)(C)C)Oc1ncccn1 (centres unmarked) [Ex. 47, N-[2-[2-[2-[3-octadecyloxy-2-(pyrimidin-2-yloxy)propylthio]ethoxy]ethoxy]ethyl]-N,N,N,trimethylammonium chloride] | 0.63 | –
5 (≈ 7.56 µM) | O=C([O-])CCCn1cc[n+](CCOCCSCC(COCCCCCCCCCCCCC2CCCCC2)Oc2ncccn2)c1 (centres unmarked) [Ex. 28] | 1.25 (≈ 1.89 µM) | –
– | CCCCCCCCCCCCCCCCCCOCC(CSCCCOCCCn1ccnc1)Oc1ncccn1 (centres unmarked) [Ex. 12, N-[3-[3-[3-octadecyloxy-2-(pyrimidin-2-yloxy)propylthio]propoxy]propyl]imidazole] | – | No. of dead mice/No. of mice tested [1, 5]: 0/5
0.63 | CCCCCCCCCCCCCCCCCCOCC(C[S+]([O-])CCOCC[N+](C)(C)C)Oc1ccncn1.[Cl-] (centres unmarked) [Ex. 35, N-[2-[2-[3-octadecyloxy-2-(pyrimidin-4-yloxy)propylsulfinyl]ethoxy]ethyl]-N,N,N-trimethylammonium chloride] | 0.16 | –
1.25 | CCCCCCCCCCCCCCCCCCOCC(C[S+]([O-])CCCOCCC[n+]1ccsc1)Oc1ncccn1 (centres unmarked) [Ex. 18, 3-[3-[3-octadecyloxy-2-(pyrimidin-2-yloxy)propylsulfinyl]propoxy]propylthiazolium chloride] | 1.25 | –

SMILES | IC50 [3] [µg/mL] | IC50 [2] [µg/mL] | also measured
CCCCCCCCCCCCCCCCCCOCC(C[S+]([O-])CCOCC[n+]1csc(CCO)c1C)Oc1ncccn1.[Cl-] (centres unmarked) [Ex. 6, 5-(2-hydroxyethyl)-4-methyl-3-[2-[2-[3-octadecyloxy-2-(pyrimidin-2-yloxy)propylsulfinyl]ethoxy]-ethyl]thiazolium chloride] | 0.63 | 0.32 | Life-span prolongation ratio (T/C %) (Sarcoma 180 cells): 213%; Number of survivors/number of mice tested (Sarcoma 180 cells): 1/5
CCCCCCCCCCCCCCCCCCOCC(CSCCOCC[n+]1ccn(CCCCCC(=O)[O-])c1)Oc1ncccn1 (centres unmarked) [Ex. 9, 6-[3-[2-[2-[3-octadecyloxy-2-(pyrimidin-2-yloxy)propylthio]ethoxy]ethyl]imidazolio-1-yl]hexanoate] | 0.63 (≈ 0.912 µM) | 0.32 (≈ 0.463 µM) | No. of dead mice/No. of mice tested ([1]; mouse, in vivo): 0/5
CCCCCCCCCCCCCCCCCCOCC(C[S+]([O-])CCOCC[n+]1ccccc1)Oc1ncccn1.[Cl-] (centres unmarked) [Ex. 2, N-[2-[2-[3-octadecyloxy-2-(pyrimidin-2-yloxy)propylsulfinyl]ethoxy]ethyl]pyridinium chloride] | 0.16 | 0.32 | No. of dead mice/No. of mice tested ([1]; mouse, in vivo): 0/5; Life-span prolongation ratio (T/C %) (breast cancer cells MM46): 150%; No. of survivors/No. of mice tested (breast cancer cells MM46): 2/5
CCCCCCCCCCCCCCCCCCOCC(C[S+]([O-])CCOCC[N+](C)(C)C)Oc1ncccn1.[Cl-] (centres unmarked) [Ex. 24, N-[2-[2-[3-octadecyloxy-2-(pyrimidin-2-yloxy)propylsulfinyl]ethoxy]ethyl]-N,N,N-trimethylammonium chloride] | 0.63 | < 0.16 | No. of dead mice/No. of mice tested ([1]; mouse, in vivo): 0/5; Life-span prolongation ratio (T/C %) (Sarcoma 180 cells): 195%; Number of survivors/number of mice tested (Sarcoma 180 cells): 1/5
CCCCCCCCCCCCCCCCCCOCC(C[S+]([O-])CCOCC[n+]1ccsc1)Oc1ncccn1 (centres unmarked) [Ex. 1, 2-[2-[3-octadecyloxy-2-(pyrimidin-2-yloxy)propylsulfinyl]ethoxy]ethylthiazolium chloride] | 1.25 | 1.25 | Growth inhibition ratio (1-T/C %) [4]: 48%; No. of dead mice/No. of mice tested ([1]; mouse, in vivo): 0/5; Life-span prolongation ratio (T/C %) (breast cancer cells MM46): 147%; No. of survivors/No. of mice tested (breast cancer cells MM46): 4/5; Life-span prolongation ratio (T/C %) (Sarcoma 180 cells): 235%; Number of survivors/number of mice tested (Sarcoma 180 cells): 2/5
CCCCCCCCCCCCCCCCCCOCC(C[S+]([O-])CCOCC[n+]1cccc(CCCO)c1)Oc1ncccn1.[Cl-] (centres unmarked) [Ex. 3, 3-(3-hydroxypropyl)-1-[2-[2-[3-octadecyloxy-2-(pyrimidin-2-yloxy)propylsulfinyl]ethoxy]-ethyl]pyridinium chloride] | 0.63 | 0.16 | Life-span prolongation ratio (T/C %) (Sarcoma 180 cells): 223%; Number of survivors/number of mice tested (Sarcoma 180 cells): 2/5

— patent US5103007A, “Lipids” (Takeda Chemical Industries, Ltd., priority 1988, dated 1992)
